Data on nine molecules can be found in patent US5476952A, “Antitumor cyclopentnaphthoquinone and cyclopentanthraquinone derivatives” (Sloan-Kettering Institute for Cancer Research, priority 1993, dated 1995).

Data set [1] concerns certain tumor cell growth. The conditions noted are these: literature; without alkylating side chain; cited from earlier work.
Data set [2] concerns L1210. The data set can be described thus: in vitro cell growth inhibition, L1210. It is filed as cell-based. The text has this:
(§1) Compounds of the invention show antitumor activity. The antitumor activity of the representative cyclopentanthraquinone derivatives is compared with Mitomycin C, m-AMSA and adriamycin.

Data set [3] concerns human leukemic HL-60. The experiment in a line: in vitro cell growth inhibition, HL-60. The note with it: for IC50 / antitumor activity against human leukemic HL-60 cell growth (in words): HL-60, in vitro. It is filed as cell-based.
Source text: as §1

Data set [4] concerns MT4. The data set can be described thus: in vitro cell growth inhibition, MT4. It is filed as cell-based, human. The conditions noted are these: for IC50 / antitumor activity against MT4 cell growth (in words): MT4, in vitro.
Source text: as §1

Data set [5] deals with L1210 cells. The experiment in a line: effect against L1210 in mice (mice inoculated i.p. with L1210 cells). It is filed as in vivo. On the set-up: AST / survival time: unit not given here. The conditions noted are these: for % ILS (increase in lifespan): 25% or greater considered significant; for survival time: individual mice. The source says:
*Increase in lifespan of 25% or greater is considered to be significant.
Mice dying of toxicity (t) not included in AST evaluation.

For data set [6], the system named is DNA. The note with it: literature; cited from earlier work.
For data set [7] the following is noted: literature; cited from earlier work.
[8] abbreviates: Mus musculus, L1210, in vitro, read-out: IC50 for Cell Growth Inhibition, L1210.
Setting [9] is: L1210, in vitro, read-out: IC50 for Cell Growth Inhibition, L1210.

Where two headings read alike, the source gives them in different places.

Take `Cc1cc(O)c2c(c1)C(=O)c1cccc(O)c1C2=O` [chrysophanol]: the “activity of the parent natural product (in words)” value in data set [1] was “inactive”.

One may read the IC50 as the point on the concentration scale where inhibition reaches its midpoint. Regarding `COc1cccc2c1C(=O)c1c(O)c3c(c(O)c1C2=O)C[C@@](O)(C(=O)CO)C[C@@H]3O[C@H]1C[C@H](N)[C@H](O)[C@H](C)O1` [Adriamycin, reference compound], the concentration for half-maximal inhibition (IC50) in data set [2] (setting [8]) came to 20 nM; in data set [3] (Homo sapiens), 30 nM.

Turning to `O=C1c2ccccc2C(=O)c2c1cc(OCCN(CCCl)CCCl)c1c2CCC1` [compound IIb, 4-[2-bis(2-chloroethyl)amino]ethoxy-2,3-dihydro-1H-cyclopent[a]anthracene-6,11-dione], the “antitumor activity against L1210 cell growth (in words)” value in data set [2] (L1210, in vitro) is recorded as “significant antitumor activity”. Besides, in data set [2] (setting [9]), the IC50 is 290 nM. In addition, in data set [3], the concentration for half-maximal inhibition (IC50) was determined as 180 nM and the “antitumor activity against human leukemic HL-60 cell growth (in words)” value is “significant antitumor activity”. Also, in data set [4], inhibition was half-maximal at 110 nM (IC50) and the “antitumor activity against MT4 cell growth (in words)” value is reported as “significant antitumor activity”. In addition, in data set [5] (2.5 mg/kg QD x5, i.p.), the AST is listed as 9.0, the N/T is listed as 0/3, the “% ILS (increase in lifespan)” value amounted to 36% and the “day 4 AWC” value is listed as “+0.3 g”. Besides, the “day 7 AWC” value in data set [5] (2.5 mg/kg QD x5, i.p.) was “+1.0 g”. Besides, in data set [5] (5.0 mg/kg QD x5, i.p.), the AST stood at 9.0, the N/T is on record as 0/3, the “% ILS (increase in lifespan)” value turned out to be 36% and the “day 4 AWC” value was -0.3 g. Moreover, in data set [5] (5.0 mg/kg QD x5, i.p.), the “day 7 AWC” value was “+0.7 g”. In addition, in data set [5] (20 mg/kg x1, i.p.), the AST is recorded as 9.0, the N/T was 0/1, the “% ILS (increase in lifespan)” value worked out at 36% and the “day 4 AWC” value is reported as -2.5 g. Further, in data set [5] (20 mg/kg x1, i.p.), the “day 7 AWC” value was “+0.5 g” and the survival time came to 9.

Take `COc1cc(NS(C)(=O)=O)ccc1Nc1c2ccccc2nc2ccccc12` [m-AMSA, reference compound]: the IC50 in data set [2] (setting [8]) amounted to 4 nM; in data set [3] (Homo sapiens), 80 nM; in data set [4] (Homo sapiens), 34 nM.

Regarding `CO[C@@]12[C@H](COC(N)=O)C3=C(C(=O)C(C)=C(N)C3=O)N1C[C@@H]1N[C@@H]12` [Mit-C, reference compound], the IC50 in data set [2] (setting [8]) worked out at 5 nM. Besides, in data set [5] (2.5 mg/kg QD x5, i.p.), the AST worked out at 12.7, the N/T was 0/3, the “% ILS (increase in lifespan)” value amounted to 92% and the “day 4 AWC” value is “+1.0 g”. The “day 7 AWC” value in data set [5] (2.5 mg/kg QD x5, i.p.) was -0.3 g. In data set [5] (5.0 mg/kg QD x5, i.p.), the N/T is recorded as 0/3 and the “day 4 AWC” value is recorded as -2.0 g. In data set [5] (20 mg/kg x1, i.p.), the AST amounted to 11.0, the N/T is reported as 0/1, the “% ILS (increase in lifespan)” value is reported as 67% and the survival time stood at 11. Besides, in data set [6], the “interaction with DNA (in words)” value is reported as “bind covalently at the minor groove of DNA double strand forming interstrand cross-links”.

On to `O=C1c2ccccc2C(=O)c2c1cc(OCCN(CCCl)CCCl)c1c2CC2NC12` (stereo not drawn) [compound IIc, 2,3-aziridino-4-[2-bis(2-chloroethyl)amino]-ethoxy-2,3-dihydro-1H-cyclopent [a]anthracene-6,11-dione], for which the “antitumor activity against L1210 cell growth (in words)” value in data set [2] (L1210, in vitro) was “much greater antitumor activity than that of IIa and IIb”. Further, in data set [2] (setting [9]), the IC50 stood at 64 nM. In data set [3], the midpoint of inhibition, the IC50, lay at 75 nM and the “antitumor activity against human leukemic HL-60 cell growth (in words)” value is “significant antitumor activity”. Also, the “potency relative to m-AMSA against HL-60 cell growth” value in data set [3] (compared with m-AMSA, HL-60) is “as potent as m-AMSA”. Moreover, in data set [4], inhibition was half-maximal at 69 nM (IC50) and the “antitumor activity against MT4 cell growth (in words)” value is listed as “significant antitumor activity”. Moreover, the “activity relative to m-AMSA against MT4 cell growth” value in data set [4] (compared with m-AMSA, MT4) is listed as “half as active as m-AMSA”. Moreover, in data set [5] (2.5 mg/kg QD x5, i.p.), the AST turned out to be 9.0, the N/T was 0/3, the “% ILS (increase in lifespan)” value is listed as 36% and the “day 4 AWC” value is listed as “+0.3 g”. In data set [5] (5.0 mg/kg QD x5, i.p.), the AST came to 9.0, the N/T is 0/3, the “% ILS (increase in lifespan)” value stood at 36% and the “day 4 AWC” value is listed as -0.3 g. For the same molecule, the “day 7 AWC” value in data set [5] (5.0 mg/kg QD x5, i.p.) was “+1.7 g”. Further, in data set [5] (20 mg/kg x1, i.p.), the AST worked out at 9.0, the N/T is 0/1, the “% ILS (increase in lifespan)” value turned out to be 36% and the “day 4 AWC” value is recorded as -2.5 g. Also, in data set [5] (20 mg/kg x1, i.p.), the “day 7 AWC” value is “+1.5 g” and the survival time is 9.

As for `CCN(CC)CCNc1ccc(C)c2sc3ccccc3c(=O)c12` [lucanthone], the “interaction with DNA (in words)” value in data set [6] was “capable of intercalating into DNA and monoalkylating the DNA”. For the same molecule, in data set [7], the “antischistosomal and antitumor activity (in words)” value is “potent antischistosomal and antitumor activity”.

For the molecule `O=C1c2ccccc2C(=O)c2c1ccc1c2CC2NC12` (stereo not drawn) [compound IIa, 2,3-aziridino-2,3-dihydro-1H-cyclopent[a]anthracene-6,11-dione], the “antitumor activity against L1210 cell growth (in words)” value in data set [2] (L1210, in vitro) is on record as “less activity”. In addition, in data set [2] (Mus musculus, L1210, read-out: IC50 for Cell Growth Inhibition, L1210), the IC50 was found to be 9090 nM.

`Cc1cc(O)c2c(c1)C(=O)c1cc(O)cc(O)c1C2=O` [emodin]: the “activity of the parent natural product (in words)” value in data set [1] is “inactive”.
